Square brackets hold non-standard residues; d marks the D form. Peptide text beside a SMILES is read from it. * marks the point of attachment. X3 = C#CC[N+](C)(C)[C@@H](Cc1ccccc1)C(=O)*; X1 = C[N+](C)(C)[C@@H](Cc1ccccc1)C(=O)*; NMe2Phe = CN(C)[C@@H](Cc1ccccc1)C(=O)*; X2 = C#CCN(C)[C@@H](Cc1ccccc1)C(=O)*; X4 = CCN(CC)[C@@H](Cc1ccccc1)C(=O)*; NMeF = CN[C@@H](Cc1ccccc1)C(=O)O; Cha = N[C@@H](CC1CCCCC1)C(=O)O; dCha = N[C@H](CC1CCCCC1)C(=O)O; dOrn = NCCC[C@@H](N)C(=O)O
Legend:
[1] = test system: canine gastrointestinal tract; test: Contractile activity in the canine gastrointestinal tract; type: in vivo, dog; conditions: anesthetized dogs, intra-arterial injection to a duodenal segment; amount giving 50% of the calibration response to field stimulation
Experimental: Mongrel dogs of either sex were anesthetized with sodium pentobarbital 65 mg/kg intravenously. A mid-line incision was made in the abdomen. A duodenal segment was located, the terminal arteries to that segment were identified, and the closest possible artery of the appropriate size was rubbed clean of fat and fascia. A needle of suitable diameter was bent at an angle and the tip inserted in the cleaned artery. The needle was held in position in the artery for approximately 30 seconds until vascular spasm has relaxed and then a catheter assembly was inserted into the artery and tied into position with 000 silk sutures. The fine polyethylene catheter (10-15 cm) was cut to a point at one end with a needle inserted at the other end. The hub of the needle was fitted with a 3-way stopcock and the catheter assembly was filled with heparinized Krebs Ringer bicarbonate containing 10 mM glucose. A bolus of Krebs (free of air) was injected into the arterial catheter and the distribution of blanching in the segment noted. If the area was too large, collateral arteries may be tied off as long as circulation to the area was maintained. A Bass type strain gauge was then sutured to the serosa, and oriented so that circular muscle contractions can be recorded on a Beckman R611 dynograph. Silver wire electrodes were inserted subserosally on either side of the strain gauge and were connected through stimulus isolation units to a Grass S88 electrical stimulator. Electrical field stimulation was applied at 40 V 0.5 ms and 5 pps and the amplitude of the pen recorder was set to contain the contractile response.
All peptides to be injected were dissolved in Krebs and serial dilutions were prepared so that for any concentration the maximum volume to be injected was 1 ml. All solutions except stock Krebs were held on ice for the day of the experiment and discarded at the end of the day. For determination of a dose-response curve, the site was first injected with a bolus of approximately 1 ml of heparinized Krebs to provide a flush control. Peptide agonists (in volumes of 1 ml flushed with 1 ml of Krebs) were injected in logarithmic increments until a response which was maximal in amplitude was obtained. The injection site was then flushed with Krebs containing 0.1% BSA to displace any peptide remaining in the arterial line. For peptides acting at the motilin receptor, care was taken not to inject supramaximal doses as these will induce tachyphylaxis. Therefore, as responses become apparent, 0.3 or 0.5 log unit increments were used. A site was used for a dose-response determination only every 1/2 to 1 hour.
The amplitude of the calibration response to field stimulation in each site was measured and used as 100% for that site. The amplitude of the response to the agonist at each dose was determined, calculated as a % of the calibration response and plotted against the concentration. The ED50 of the response represents the amount of agonist required to produce a response which was 50% of the calibration response.

[2] = target: segments of rabbit duodenum (Oryctolagus cuniculus, UniProt G1T803); test: Rabbit duodenal smooth muscle strip tissue bath assay; type: cell-based; conditions: negative logarithm of the dose giving 50% of the maximal response to motilin; isotonic contraction of rabbit duodenum segments
Experimental: The contractile response of segments of rabbit duodenum was determined isotonically in the tissue bath according to the procedure of Depoortere et at., J. Gastrointestinal Motility, 1, 150-159 (1989). The experimental protocol consisted of an equilibration period of 1 hour; a challenge with 10^-4 M acetylcholine followed by a wash-out period; a cumulative dose-response curve of a compound with, at the end, the addition of 10^-7 M motilin; and finally 10^-4 M acetylcholine. If the final response to 10^-4 M acetylcholine differed by more than 5% from the initial response, the results were discarded. The compounds were tested in the concentration range 10^-11 to 10^-4 M. The point corresponding to 50% of the maximal response to motilin (Emax) was determined by fitting the equation E=Emax (1+EC50 /[L]) through the data points. […] The dose giving 50% of the response is expressed using its negative logarithm (pEC50).

[3] = target: T1, motilin receptor (Oryctolagus cuniculus, UniProt G1T803); test: Determination of motilin receptor binding affinity (displacement of [125I-Tyr7, Nle13]motilin(porcine)); set-up: species or system rabbit; conditions: negative logarithm of the concentration displacing 50% of [125I-Tyr7, Nle13]motilin(porcine) from rabbit antral smooth muscle membranes; read-out: pIC50 (converted)
T1 construct: from tissue; host or cells: rabbit antral smooth muscle membranes
Experimental: The motilin receptor binding affinity of the peptides of this invention was determined by using the general procedure of Bormans, Peelers and Vantrappen, Regul. […] Fitting was performed using the iterative least-squares procedure of the SAS-software package (SAS Institute, Inc., Cary, N.C., USA).

T1 sequence (G1T803 1-400): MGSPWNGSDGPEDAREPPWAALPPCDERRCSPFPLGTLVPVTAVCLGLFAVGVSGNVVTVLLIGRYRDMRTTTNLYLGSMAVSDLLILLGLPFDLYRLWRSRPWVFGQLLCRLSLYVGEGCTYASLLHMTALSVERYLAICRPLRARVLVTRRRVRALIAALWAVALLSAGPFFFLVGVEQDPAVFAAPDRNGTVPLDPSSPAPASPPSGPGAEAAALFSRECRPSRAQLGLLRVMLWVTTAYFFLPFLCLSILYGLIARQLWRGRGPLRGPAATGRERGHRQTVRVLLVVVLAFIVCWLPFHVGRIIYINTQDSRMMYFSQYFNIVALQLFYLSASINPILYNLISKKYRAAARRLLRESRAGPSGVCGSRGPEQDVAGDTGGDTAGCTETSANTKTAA
Chain of segments of rabbit duodenum (G1T803 1-400): as above

pEC50 [2]	IC50 [3]	Structure (SMILES)	ED50 [1]
–	–	CC[C@H](C)[C@H](NC(=O)[C@@H]1CCCN1C(=O)[C@@H](NC(=O)[C@H](Cc1ccccc1)NC)C(C)C)C(=O)N[C@@H](Cc1ccccc1)C(=O)N[C@H](C(=O)N[C@@H](Cc1ccc(O)cc1)C(=O)NCC(=O)N[C@@H](CCC(=O)O)C(=O)N[C@@H](CC(C)C)C(=O)N[C@@H](CCC(N)=O)C(=O)N[C@H](CCCNC(=N)N)C(=O)N[C@@H](CC(C)C)C(=O)N[C@H](CCC(N)=O)C(N)=O)[C@@H](C)O (H-[NMeF]VPIFTYGELQ[dR]L[dQ]-NH2)	0.0004 nmol
–	–	CC[C@H](C)[C@H](NC(=O)[C@H](C)NC(=O)[C@@H](NC(=O)[C@H](Cc1ccccc1)NC)C(C)C)C(=O)N[C@@H](Cc1ccccc1)C(=O)N[C@H](C(=O)N[C@@H](Cc1ccc(O)cc1)C(=O)NCC(=O)N[C@@H](CCC(=O)O)C(=O)N[C@@H](CC(C)C)C(=O)N[C@@H](CCC(N)=O)C(=O)N[C@H](CCCNC(=N)N)C(=O)N[C@@H](CC(C)C)C(=O)N[C@@H](CCC(N)=O)C(N)=O)[C@@H](C)O (H-[NMeF]VAIFTYGELQ[dR]LQ-NH2)	0.024 nmol
7.65	2.14 nM	C#CC[N+](C)(C)[C@@H](Cc1ccccc1)C(=O)N[C@H](C(=O)N1CCC[C@H]1C(=O)N[C@H](C(=O)N[C@@H](Cc1ccccc1)C(=O)N[C@H](C(=O)N[C@@H](Cc1ccc(O)cc1)C(=O)NCC(=O)N[C@@H](CCC(=O)O)C(=O)N[C@@H](CC(C)C)C(=O)N[C@@H](CCC(N)=O)C(=O)N[C@@H](CCCNC(=N)N)C(=O)N[C@@H](CC(C)C)C(=O)N[C@@H](CCC(N)=O)C(N)=O)[C@@H](C)O)[C@@H](C)CC)C(C)C (X3-VPIFTYGELQRLQ-NH2)	–
7.73	4.07 nM	CC[C@H](C)[C@H](NC(=O)[C@H](C)NC(=O)[C@@H](NC(=O)[C@H](Cc1ccccc1)N(C)C)C(C)C)C(=O)N[C@@H](Cc1ccccc1)C(=O)N[C@H](C(=O)N[C@@H](Cc1ccc(O)cc1)C(=O)NCC(=O)N[C@@H](CCC(=O)O)C(=O)N[C@@H](CC(C)C)C(=O)N[C@@H](C)C(=O)N[C@H](CCCNC(=N)N)C(=O)N[C@@H](CC(C)C)C(=O)N[C@H](CCCCN)C(N)=O)[C@@H](C)O (NMe2Phe-VAIFTYGELA[dR]L[dK]-NH2)	–
7.58	1.51 nM	CC[C@H](C)[C@H](NC(=O)[C@H](C)NC(=O)[C@@H](NC(=O)[C@H](Cc1ccccc1)[N+](C)(C)C)C(C)C)C(=O)N[C@@H](Cc1ccccc1)C(=O)N[C@H](C(=O)N[C@@H](Cc1ccc(O)cc1)C(=O)NCC(=O)N[C@@H](CCC(=O)O)C(=O)N[C@@H](CC(C)C)C(=O)N[C@@H](CCC(N)=O)C(=O)N[C@@H](CCCNC(=N)N)C(=O)N[C@@H](CC(C)C)C(=O)N[C@@H](CCCCN)C(N)=O)[C@@H](C)O (X1-VAIFTYGELQRLK-NH2)	–
7.32	0.724 nM	CC[C@H](C)[C@H](NC(=O)[C@H](C)NC(=O)[C@@H](NC(=O)[C@H](Cc1ccccc1)NC)C(C)C)C(=O)N[C@@H](Cc1ccccc1)C(=O)N[C@H](C(=O)N[C@@H](Cc1ccc(O)cc1)C(=O)NCC(=O)N[C@@H](CCC(=O)O)C(=O)N[C@@H](CC(C)C)C(=O)N[C@@H](C)C(=O)N[C@H](CCCNC(=N)N)C(=O)N[C@@H](CC(C)C)C(=O)N[C@H](CCC(N)=O)C(N)=O)[C@@H](C)O (H-[NMeF]VAIFTYGELA[dR]L[dQ]-NH2)	–
7.54	3.89 nM	CC[C@H](C)[C@H](NC(=O)[C@@H]1CCCN1C(=O)[C@@H](NC(=O)[C@H](Cc1ccccc1)N(CC)CC)C(C)C)C(=O)N[C@@H](Cc1ccccc1)C(=O)N[C@H](C(=O)N[C@@H](Cc1ccc(O)cc1)C(=O)NCC(=O)N[C@@H](CCC(=O)O)C(=O)N[C@@H](CC(C)C)C(=O)N[C@@H](CCC(N)=O)C(=O)N[C@@H](CCCNC(=N)N)C(=O)N[C@@H](CC(C)C)C(=O)N[C@@H](CCC(N)=O)C(N)=O)[C@@H](C)O [[Et2 Phe^1, Leu^13]pMOT(1-14) amide] (X4-VPIFTYGELQRLQ-NH2)	–
7.25	0.933 nM	CC[C@H](C)[C@H](NC(=O)[C@H](C)NC(=O)[C@@H](NC(=O)[C@H](N)CC1CCCCC1)C(C)C)C(=O)N[C@@H](Cc1ccccc1)C(=O)N[C@H](C(=O)N[C@@H](Cc1ccc(O)cc1)C(=O)NCC(=O)N[C@@H](CCC(=O)O)C(=O)N[C@@H](CC(C)C)C(=O)N[C@@H](C)C(=O)N[C@H](CCCNC(=N)N)C(=O)N[C@@H](CC(C)C)C(=O)N[C@H](CCCCN)C(N)=O)[C@@H](C)O (H-[dCha]VAIFTYGELA[dR]L[dK]-NH2)	–
7.30	6.76 nM	CC[C@H](C)[C@H](NC(=O)[C@@H]1CCCN1C(=O)[C@@H](NC(=O)[C@@H](N)Cc1ccccc1)C(C)C)C(=O)N[C@@H](CC1CCCCC1)C(=O)N[C@H](C(=O)N[C@@H](Cc1ccc(O)cc1)C(=O)NCC(=O)N[C@@H](CCC(=O)O)C(=O)N[C@@H](CC(C)C)C(=O)N[C@@H](CCC(N)=O)C(=O)N[C@H](CCCNC(=N)N)C(=O)N[C@@H](CC(C)C)C(=O)N[C@@H](CCC(N)=O)C(N)=O)[C@@H](C)O [H-Phe-Val-Pro-Ile-Cha-Thr-Tyr-Gly-Glu-Leu-Gln-D-Arg-Leu-Gln-NH2] (H-FVPI[Cha]TYGELQ[dR]LQ-NH2)	–
7.48	2.69 nM	CC[C@H](C)[C@H](NC(=O)[C@@H]1CCCN1C(=O)[C@@H](NC(=O)[C@H](Cc1ccccc1)[N+](C)(C)C)C(C)C)C(=O)N[C@@H](Cc1ccccc1)C(=O)N[C@H](C(=O)N[C@@H](Cc1ccc(O)cc1)C(=O)NCC(=O)N[C@@H](CCC(=O)O)C(=O)N[C@@H](CC(C)C)C(=O)N[C@@H](CCC(N)=O)C(=O)N[C@@H](CCCNC(=N)N)C(=O)N[C@@H](CC(C)C)C(=O)N[C@@H](CCC(N)=O)C(N)=O)[C@@H](C)O (X1-VPIFTYGELQRLQ-NH2)	–
6.83	4.27 nM	CC[C@H](C)[C@H](NC(=O)[C@@H]1CCCN1C(=O)[C@@H](NC(=O)[C@@H](N)Cc1ccccc1)C(C)C)C(=O)N[C@@H](Cc1ccccc1)C(=O)N[C@H](C(=O)N[C@@H](Cc1ccc(O)cc1)C(=O)NCC(=O)N[C@@H](CCC(=O)O)C(=O)N[C@@H](CC(C)C)C(=O)N[C@@H](CCC(N)=O)C(=O)N[C@H](CCCN)C(=O)N[C@@H](CC(C)C)C(=O)N[C@@H](CCC(N)=O)C(=O)O)[C@@H](C)O [[D-Orn^12, Leu^13]pMOT(1-14)] (H-FVPIFTYGELQ[dOrn]LQ-OH)	–
7.22	1.45 nM	CC[C@H](C)[C@H](NC(=O)[C@H](C)NC(=O)[C@@H](NC(=O)[C@H](Cc1ccccc1)[N+](C)(C)C)C(C)C)C(=O)N[C@@H](Cc1ccccc1)C(=O)N[C@H](C(=O)N[C@@H](Cc1ccc(O)cc1)C(=O)NCC(=O)N[C@@H](CCC(=O)O)C(=O)N[C@@H](CC(C)C)C(=O)N[C@@H](C)C(=O)N[C@H](CCCNC(=N)N)C(=O)N[C@@H](CC(C)C)C(=O)N[C@H](CCC(N)=O)C(N)=O)[C@@H](C)O (X1-VAIFTYGELA[dR]L[dQ]-NH2)	–
7.57	2 nM	C#CCN(C)[C@@H](Cc1ccccc1)C(=O)N[C@H](C(=O)N1CCC[C@H]1C(=O)N[C@H](C(=O)N[C@@H](Cc1ccccc1)C(=O)N[C@H](C(=O)N[C@@H](Cc1ccc(O)cc1)C(=O)NCC(=O)N[C@@H](CCC(=O)O)C(=O)N[C@@H](CC(C)C)C(=O)N[C@@H](CCC(N)=O)C(=O)N[C@@H](CCCNC(=N)N)C(=O)N[C@@H](CC(C)C)C(=O)N[C@@H](CCC(N)=O)C(N)=O)[C@@H](C)O)[C@@H](C)CC)C(C)C (X2-VPIFTYGELQRLQ-NH2)	–

Source: patent publication US5422341A, “Motilin-like polypeptides with gastrointestinal motor stimulating activity” (Ohmeda Pharmaceutical Products Division Inc., priority 1993, dated 1995)
